Results: PMC9886266, “New [1,2,4]triazolo[4,3-c]quinazolines as intercalative Topo II inhibitors: Design, synthesis, biological evaluation, and in silico studies” (PLOS ONE, 2023)

Assays:
[1] = system: BAX/Bcl-2 ratio; test: Western blot, BAX/Bcl-2 ratio; format: cell-based, human; settings: HCT-116, 2.44 μM, 48 h; control = 1.00
Method: (§1) In comparison to the control, compound 16 elevated the level of the proapoptotic protein (BAX) by 2.18 times. […] Furthermore, compound 16 enhanced the BAX/Bcl-2 ratio by 4.38-fold in comparison to control cells.
(§2) The effects of compound 16 on the expression of BAX, and Bcl‐2 were determined using Western blot analysis [62–64]as described in Electronic Supplementary Material S2.7 in S1 Appendix. […]
(§3) for 48 h. Then, the cells were fixed in 70% ethanol at 4 °C for 12 h. After that, the cells were washed with cold PBS, incubated with 100 μl RNase A at 37 °C for 30 min, and stained with 400 μl PI in the dark at room temperature for further 30 min. The stained cells were measured using Epics XL-MCL™ Flow Cytometer (Beckman Coulter), and the data were analyzed using Flowing software (version 2.5.1, Turku Centre for Biotechnology, Turku, Finland).
(§4) S2.6. Flow cytometry analysis for apoptosis
(§5) Flow cytometry cell apoptosis analysis was used to investigate the apoptotic effect of the synthesized compounds. […] The stained cells were measured using Epics XL-MCL™ Flow Cytometer and analyzed using Flowing software. […]
(§6) The proteins expression of BAX, and Bcl‐2 were determined using Western blot analysis. […] Total protein concentrations in the supernatant were determined colorimetrically using the Pierce 660 nm Protein Assay method (Thermo Fisher Scientific, Rockford, IL), with BSA as the standard. […]

[2] = system: Bcl-2; test: Western blot, Bcl-2 level; format: cell-based, human; settings: HCT-116, 2.44 μM, 48 h
Method: as §1, §2, §3, §4, §5, §6

In the case of `CCCNc1nc2ccccc2c2nnc(C(F)(F)F)n12` [Compound 16, N-Propyl-3-(trifluoromethyl)-[1,2,4]triazolo[4,3-c]quinazolin-5-amine], the “Protein expression (normalized to β-actin) BAX/Bcl-2 ratio” value [1] was 4.38 ± 0.86, the “Reduction of Bcl-2 level compared to control” value [2] was 1.9 fold and the “Protein expression (normalized to β-actin) Bcl-2” value ([2]; control = 1.00) was 0.52 ± 0.08.
